# Assay results: ChEMBL document CHEMBL1909281, “FDA-approved drug labeling for the study of drug-induced liver injury” (Drug Discov Today, 2011)
# System: Hepatotoxicity
# Assay: FDA Liver Toxicity Knowledge Base Benchmark Dataset (LTKB-BD) drugs of most concern for DILI
# Conditions: not given
row,Compound,LTKB_BD DILI severity score
1,CC(c1cc2ccccc2s1)N(O)C(N)=O (centres undefined) [ZILEUTON],5
2,COc1ccccc1Oc1c(NS(=O)(=O)c2ccc(C(C)(C)C)cc2)nc(-c2ncccn2)nc1OCCO [BOSENTAN],7
3,CCC[C@@]1(CCc2ccccc2)CC(O)=C([C@H](CC)c2cccc(NS(=O)(=O)c3ccc(C(F)(F)F)cn3)c2)C(=O)O1,8
4,CN(C/C=C/C#CC(C)(C)C)Cc1cccc2ccccc12 [TERBINAFINE],8
5,Cc1cc(C(=O)NNCc2ccccc2)no1 [ISOCARBOXAZID],5

# Same assay, conditions: Liver
row,Compound,LTKB_BD DILI severity score
1,Nc1ccn([C@H]2CC[C@@H](CO)O2)c(=O)n1 [ZALCITABINE],8

# System: Hepatotoxicity
# Conditions: not given
row,Compound,LTKB_BD DILI severity score
1,CCC1=C(C)CN(C(=O)NCCc2ccc(S(=O)(=O)NC(=O)N[C@H]3CC[C@H](C)CC3)cc2)C1=O [GLIMEPIRIDE],7
2,CN(C)CCOc1ccc(/C(=C(/CCCl)c2ccccc2)c2ccccc2)cc1 [TOREMIFENE],3
3,COCCc1ccc(OCC(O)CNC(C)C)cc1 (centres undefined) [METOPROLOL],5
4,O=C1CC2(CCCC2)CC(=O)N1CCCCN1CCN(c2ncccn2)CC1 [BUSPIRONE],3
5,NC(=O)c1cnccn1 [PYRAZINAMIDE],3
6,CC(C)NCC(O)COc1ccc(COCCOC(C)C)cc1 (centres undefined) [BISOPROLOL],3
7,CN(C)CCCN1c2ccccc2CCc2ccccc21 [IMIPRAMINE],3
8,COc1cc2c(c(OC)c1OC)-c1ccc(OC)c(=O)cc1[C@@H](NC(C)=O)CC2 [COLCHICINE],6
9,CC1=C(/C=C/C(C)=C/C=C/C(C)=C\C(=O)O)C(C)(C)CCC1 [ISOTRETINOIN],2
10,Fc1ccc([C@@H]2CCNC[C@H]2COc2ccc3c(c2)OCO3)cc1 [PAROXETINE],8
11,CN(C)[C@@H]1C(O)=C(C(N)=O)C(=O)[C@@]2(O)C(O)=C3C(=O)c4c(O)cccc4[C@@](C)(O)[C@H]3C[C@@H]12 [TETRACYCLINE],2
12,COc1ccc2c(c1)c(CC(=O)O)c(C)n2C(=O)c1ccc(Cl)cc1 [INDOMETHACIN],3
13,O=P1(NCCCl)OCCCN1CCCl (centres undefined) [IFOSFAMIDE],4
14,O=NN(CCCl)C(=O)NCCCl [CARMUSTINE],3
15,C[C@]12C=CC(=O)C=C1CC[C@@H]1[C@@H]2[C@@H](O)C[C@@]2(C)[C@H]1CC[C@]2(O)C(=O)CO [PREDNISOLONE],3
16,CN(C)c1nc(N(C)C)nc(N(C)C)n1 [ALTRETAMINE],2
17,CC[C@H](C)C(=O)O[C@H]1C[C@H](O)C=C2C=C[C@H](C)[C@H](CC[C@@H](O)C[C@@H](O)CC(=O)O)[C@H]21 [PRAVASTATIN],3
18,CNC(=C[N+](=O)[O-])NCCSCc1ccc(CN(C)C)o1 [RANITIDINE],5
19,NC12CC3CC(CC(C3)C1)C2 [AMANTADINE],3
20,CC(=O)S[C@@H]1CC2=CC(=O)CC[C@]2(C)[C@H]2CC[C@@]3(C)[C@@H](CC[C@@]34CCC(=O)O4)[C@H]12 [SPIRONOLACTONE],2
21,O=C(CCCN1CCC(O)(c2ccc(Cl)cc2)CC1)c1ccc(F)cc1 [HALOPERIDOL],5
22,CCOC(=O)[C@H](CCc1ccccc1)N[C@@H](C)C(=O)N1CCC[C@H]1C(=O)O,4

row,Compound,LTKB_BD DILI severity score
1,CCN(CC)CCCC(C)Nc1ccnc2cc(Cl)ccc12 (centres undefined) [CHLOROQUINE],3
2,CC(C)(S)[C@@H](N)C(=O)O [PENICILLAMINE],3
3,O=C([O-])c1cc(=O)c2c(OCC(O)COc3cccc4oc(C(=O)[O-])cc(=O)c34)cccc2o1.[Na+].[Na+] [CROMOLYN SODIUM],3
4,COC(=O)Nc1nc2ccc(C(=O)c3ccccc3)cc2[nH]1 [MEBENDAZOLE],3
5,O=C(c1ccccc1)c1ccc2n1CCC2C(=O)O (centres undefined) [KETOROLAC],3
6,C[C@@H]1C[C@H]2[C@@H]3CCC4=CC(=O)C=C[C@]4(C)[C@@]3(F)[C@@H](O)C[C@]2(C)[C@@]1(O)C(=O)CO [DEXAMETHASONE],3
7,CARBOPLATIN,3
8,CC(=O)CC(c1ccccc1)c1c(O)c2ccccc2oc1=O (centres undefined) [WARFARIN],5
9,CN(C)[C@@H]1C(O)=C(C(N)=O)C(=O)[C@@]2(O)C(O)=C3C(=O)c4c(O)cccc4[C@@](C)(O)[C@H]3[C@H](O)[C@@H]12 [OXYTETRACYCLINE],2
10,CCc1ccc(CCOc2ccc(CC3SC(=O)NC3=O)cc2)nc1 (centres undefined) [PIOGLITAZONE],3
11,CC(C)OC(=O)C(C)(C)Oc1ccc(C(=O)c2ccc(Cl)cc2)cc1 [FENOFIBRATE],3
12,C=C(CC)C(=O)c1ccc(OCC(=O)O)c(Cl)c1Cl [ETHACRYNIC ACID],5
13,CN1CCN(C2=Nc3cc(Cl)ccc3Nc3ccccc32)CC1 [CLOZAPINE],2
14,O[C@@H]1CO[C@H]2[C@@H]1OC[C@@H]2O [ISOSORBIDE],3
15,C[C@]12CC[C@@H]3c4ccc(O)cc4CC[C@H]3[C@@H]1CC[C@@H]2O [ESTRADIOL],2
16,Clc1ccccc1C(c1ccccc1)(c1ccccc1)n1ccnc1 [CLOTRIMAZOLE],3
17,O=c1n(CCCN2CCN(c3cccc(Cl)c3)CC2)nc2ccccn12 [TRAZODONE],5
18,Nc1nc2c(ncn2COCCO)c(=O)[nH]1 [ACYCLOVIR],5
19,CC(C)NCC(O)COc1cccc2ccccc12 (centres undefined) [PROPRANOLOL],3
20,COc1ccc(C(CN(C)C)C2(O)CCCCC2)cc1 (centres undefined) [VENLAFAXINE],7
21,CC(NC(C)(C)C)C(=O)c1cccc(Cl)c1 (centres undefined) [BUPROPION],5
22,CC(C(=O)O)c1ccc(-c2ccccc2)c(F)c1 (centres undefined) [FLURBIPROFEN],3

row,Compound,LTKB_BD DILI severity score
1,Nc1nc(O)c2ncn(COC(CO)CO)c2n1 [GANCICLOVIR],7
2,Cc1ccc(C)c(OCCCC(C)(C)C(=O)O)c1 [GEMFIBROZIL],3
3,CC(C)Cc1ccc(C(C)C(=O)O)cc1 (centres undefined) [IBUPROFEN],3
4,C[C@H]1c2cccc(O)c2C(=O)C2=C(O)[C@]3(O)C(=O)C(C(N)=O)=C(O)[C@@H](N(C)C)[C@@H]3[C@@H](O)[C@@H]21.O [DOXYCYCLINE],3
5,CC(C)(O)c1ccccc1CC[C@@H](SCC1(CC(=O)O)CC1)c1cccc(/C=C/c2ccc3ccc(Cl)cc3n2)c1 [MONTELUKAST],3
6,CCC1(c2ccccc2)C(=O)NC(=O)NC1=O [PHENOBARBITAL],3
7,CC1(C)S[C@@H]2[C@H](NC(=O)[C@H](N)c3ccc(O)cc3)C(=O)N2[C@H]1C(=O)O [AMOXICILLIN],3
8,Oc1ncnc2[nH]ncc12 [ALLOPURINOL],3
9,CCOC(=O)C(C)(C)Oc1ccc(Cl)cc1 [CLOFIBRATE],3
10,CN1CCN(CCCN2c3ccccc3Sc3ccc(C(F)(F)F)cc32)CC1 [TRIFLUOPERAZINE],2
11,CN(C)CCCN1c2ccccc2Sc2ccc(Cl)cc21 [CHLORPROMAZINE],2
12,COC1=CC(=O)C[C@@H](C)[C@]12Oc1c(Cl)c(OC)cc(OC)c1C2=O [GRISEOFULVIN],3
13,NC(=O)c1ncn([C@@H]2O[C@H](CO)[C@@H](O)[C@H]2O)n1 [RIBAVIRIN],7
14,CN(C)c1ccc(O)c2c1C[C@H]1C[C@H]3[C@H](N(C)C)C(O)=C(C(N)=O)C(=O)[C@@]3(O)C(O)=C1C2=O [MINOCYCLINE],2
15,CCOC(=O)C1=C[C@@H](OC(CC)CC)[C@H](NC(C)=O)[C@@H](N)C1 [OSELTAMIVIR],3
16,CNCCC(Oc1ccc(C(F)(F)F)cc1)c1ccccc1 (centres undefined) [FLUOXETINE],3
17,CNC(=C[N+](=O)[O-])NCCSCc1csc(CN(C)C)n1 [NIZATIDINE],5
18,COC(=O)C1=C(C)NC(C)=C(C(=O)OC)C1c1ccccc1[N+](=O)[O-] [NIFEDIPINE],3
19,CN1C(C(=O)Nc2ccccn2)=C(O)c2ccccc2S1(=O)=O [PIROXICAM],3
20,C=CC[C@@H]1/C=C(\C)C[C@H](C)C[C@H](OC)[C@H]2O[C@@](O)(C(=O)C(=O)N3CCCC[C@H]3C(=O)O[C@H](/C(C)=C/[C@@H]3CC[C@@H](O)[C@H](OC)C3)[C@H](C)[C@@H](O)CC1=O)[C@H](C)C[C@@H]2OC [TACROLIMUS ANHYDROUS],5
21,C[C@H](CS)C(=O)N1CCC[C@H]1C(=O)O [CAPTOPRIL],6
22,CCCNC(=O)NS(=O)(=O)c1ccc(Cl)cc1 [CHLORPROPAMIDE],2

# Same assay, conditions: Liver
row,Compound,LTKB_BD DILI severity score
1,O=C1NC(=O)C(c2ccccc2)(c2ccccc2)N1 [PHENYTOIN],3
2,Clc1cccc(Cl)c1N=C1NCCN1 [CLONIDINE],3
3,NC(N)=Nc1nc(CSCCC(N)=NS(N)(=O)=O)cs1 [FAMOTIDINE],3
4,O=P1(N(CCCl)CCCl)NCCCO1 (centres undefined) [CYCLOPHOSPHAMIDE ANHYDROUS],5
5,CNCCCN1c2ccccc2CCc2ccccc21 [DESIPRAMINE],3
6,CN[C@H]1CC[C@@H](c2ccc(Cl)c(Cl)c2)c2ccccc21 [SERTRALINE],3
7,CNCCCC12CCC(c3ccccc31)c1ccccc12 [MAPROTILINE],5
8,COc1ccc2cc([C@H](C)C(=O)O)ccc2c1 [NAPROXEN],3
9,CN/C(=N/CCSCc1nc[nH]c1C)NC#N [CIMETIDINE],2
10,Cc1cccc(C)c1OCC(C)N (centres undefined) [MEXILETINE],3
11,Cn1cnc([N+](=O)[O-])c1Sc1ncnc2nc[nH]c12 [AZATHIOPRINE],3
12,CC(C)(C)NC(=O)[C@@H]1C[C@@H]2CCCC[C@@H]2CN1C[C@@H](O)[C@H](Cc1ccccc1)NC(=O)[C@H](CC(N)=O)NC(=O)c1ccc2ccccc2n1,3
